Consider one molecule from paper doi:10.1101/2020.05.06.079947v2 (biorxiv, 2020).

pKd: −log10 of the molar value.

The target in the experiment is PDEδ (Homo sapiens, UniProt O43924). Briefly: SPR. The experiment is classed as binding.
Sequence of PDEδ (O43924 whole entry): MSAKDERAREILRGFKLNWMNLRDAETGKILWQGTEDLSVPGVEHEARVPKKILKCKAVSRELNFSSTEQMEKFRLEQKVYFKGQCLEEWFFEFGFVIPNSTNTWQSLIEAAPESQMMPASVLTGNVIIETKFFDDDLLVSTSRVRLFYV

As for `O=C(COc1cccc2c1C(=O)N(C1CCC(=O)NC1=O)C2=O)NCCCOCCOCCOCCCNC(=O)c1cc(Oc2ccc(NC(=O)Nc3ccc(Cl)c(C(F)(F)F)c3)cc2)ccn1` (stereo not shown) [PROTAC T-S, 4-(4-(3-(4-chloro-3-(trifluoromethyl)phenyl)ureido)phenoxy)-N-(1-((2-(2,6-dioxopiperidin-3-yl)-1,3-dioxoisoindolin-4-l)oxy)-2-oxo-7,10,13-trioxa-3-azahexadecan-16-yl)picolinamide], the pKd (in general, the Kd on a negative log10 scale, so that one unit is a factor of ten) was 5.65.
